Test results as given in ChEMBL document CHEMBL1152891, “Design of novel aminopyrrolidine factor Xa inhibitors from a screening hit” (Eur J Med Chem, 2009).
Values after ≈ are worked out from the molar mass of the structure shown.

What was measured:
[1] = Lipophilicity, log D of the compound; type: physicochemical; conditions: octanol/water
[2] = Aqueous solubility of the compound; type: physicochemical
[3] = Permeability across cell membrane; type: ADME; conditions: not told; read-out: permeability
[4] = Volume of distribution at steady state in rat at 1 mg, iv; type: ADME, organism-based; conditions: in vivo, read-out: Vdss
[5] = Tmax in rat at 1 mg, po; type: ADME, organism-based; conditions: in vivo
[6] = Oral bioavailability in rat at 1 mg, po; type: ADME, organism-based; conditions: in vivo
[7] = Volume of distribution at steady state in rat at 0.5 mg, iv; type: ADME, organism-based; conditions: in vivo, read-out: Vdss

logD [1]	solubility ([2]; aqueous, read-out: solubility)	SMILES	further results
0.1	> 0.601 mg/mL	CN1CCC(N2CCN(C(=O)Cn3ccc(NC(=O)c4ccc(Cl)s4)n3)CC2)CC1	–
1.6	–	O=C(CN1C[C@H](NC(=O)c2ccc(Cl)s2)[C@@H](OCCO)C1)Nc1ccc(-n2ccccc2=O)cc1F	solubility ([2]; buffer): > 0.713 mg/mL; Papp [3]: 4 nm/s; Vd [4]: 1.1 L/kg; Tmax [5]: 15 min; bioavailability [6]: 16%
> 3	< 0.001 mg/mL	O=C(Cn1ccc(NC(=O)c2ccc(Cl)s2)n1)Nc1ccc(-n2ccccc2=O)cc1F	–
> 3	< 0.001 mg/mL	O=C(Cc1csc(NC(=O)c2ccc(Cl)s2)n1)Nc1ccc(-n2ccccc2=O)cc1F	–
2.3	0.166 mg/mL (≈ 350 µM)	O=C(CN1CC[C@H](NC(=O)c2ccc(Cl)s2)C1)Nc1ccc(-n2ccccc2=O)cc1F	–
–	–	O=C(CN1C[C@H](NC(=O)c2ccc(Cl)s2)[C@@H](O)C1)Nc1ccc(-n2ccccc2=O)cc1F	solubility ([2]; buffer): 0.516 mg/mL (≈ 1050 µM); Papp [3]: 15 nm/s; Vd [7]: 1.1 L/kg; Tmax [5]: 15 min; bioavailability [6]: 38%
2.4	< 0.001 mg/mL	O=C(Cn1nnc(NC(=O)c2ccc(Cl)s2)n1)Nc1ccc(-n2ccccc2=O)cc1F	–
> 3	< 0.001 mg/mL	O=C(Cc1csc(NC(=O)c2ccc(Cl)cc2)n1)Nc1ccc(-n2ccccc2=O)cc1F	–
2.3	0.197 mg/mL (≈ 415 µM)	O=C(CN1CC[C@@H](NC(=O)c2ccc(Cl)s2)C1)Nc1ccc(-n2ccccc2=O)cc1F	–
-0.5	> 0.6 mg/mL	CN1CCC(N2CCN(C(=O)Cn3cnc(NC(=O)c4ccc(Cl)s4)n3)CC2)CC1	–
2.4	0.001 mg/mL (≈ 2.11 µM)	O=C(Cn1cnc(NC(=O)c2ccc(Cl)s2)n1)Nc1ccc(-n2ccccc2=O)cc1F	Papp [3]: 9 nm/s; Vd [7]: 0.3 L/kg; Tmax [5]: 66 min; bioavailability [6]: 10%

SMILES	logD [1]	solubility ([2]; aqueous, read-out: solubility)	further results
CN1CCC(N2CCN(C(=O)Cc3csc(NC(=O)c4ccc(Cl)cc4)n3)CC2)CC1	0.6	> 0.62 mg/mL	–
CN1CCC(N2CCN(C(=O)Cc3csc(NC(=O)c4ccc(Cl)s4)n3)CC2)CC1	1	> 0.62 mg/mL	–
O=C(Nc1nc(CC(=O)N2CCN(CC(=O)N3CCCC3)CC2)cs1)c1ccc(Cl)s1	2.1	> 0.64 mg/mL	–
O=C(Nc1nc(CC(=O)N2CCN(CC(=O)N3CCCC3)CC2)cs1)c1ccc(Cl)cc1	2.2	> 0.58 mg/mL	–
